Data reported in US6514981B1, “Methods of modulating tyrosine protein kinase function with indolinone compounds” (Sugen, Inc., priority 1998, dated 2003).

Target: EGFR (Homo sapiens, UniProt P00533)
Assay: EGF receptor phosphorylation assay in cells (ELISA)
Type: cell-based
Set-up: expressed in transfected cells; host or cells: NIH 3T3/C7 cell line
Conditions: NIH 3T3/C7 cells, EGF stimulation
Experimental: EGF Receptor kinase activity in cells genetically engineered to express human EGF-R was measured as described below: 1. Coat ELISA plates (Coming, 96 well, Cat. #25805-96) wit 05-101 antibody at 0.5 μg per well in PBS, 150 μL final volume/well, and store overnight at 4° C. Coated plates are good for up to 10 days when stored at 4° C. 1. NIH 3T3/C7 cell line (Honegger, et al., Cell 51:199-209, 1987) can be use for this assay. 3. Resuspend cells in seeding medium (DMEM, 0.5% bovine serum), and count the cells using trypan blue. Viability above 90% is acceptable. Seed cells in DMEM medium (0.5% bovine serum) at a density of 10,000 cells per well, 100 μL per well, in a 96 well microtiter plate. Incubate seeded cells in 5% CO2 at 37° C. for about 40 hours. 1. Check seeded cells for contamination using an inverted microscope. Dilute drug stock (10 mg/mL in DMSO) 1:10 in DMEM medium, then transfer 5 μL to a test well for a final drug dilution of 1:200 and a final DMSO concentration of […]. […] The maximal phosphotyrosine signal is determined by subtracting the value of the negative controls from the positive controls. The percent inhibition of phosphotyrosine content for extract-containing wells is then calculated, after subtraction of the negative controls. The IC50 values measured in the EGF receptor phosphorylation assay for the compound of formula VI are depicted in Table 3: […]

EGFR, sequence (P00533 25-1210): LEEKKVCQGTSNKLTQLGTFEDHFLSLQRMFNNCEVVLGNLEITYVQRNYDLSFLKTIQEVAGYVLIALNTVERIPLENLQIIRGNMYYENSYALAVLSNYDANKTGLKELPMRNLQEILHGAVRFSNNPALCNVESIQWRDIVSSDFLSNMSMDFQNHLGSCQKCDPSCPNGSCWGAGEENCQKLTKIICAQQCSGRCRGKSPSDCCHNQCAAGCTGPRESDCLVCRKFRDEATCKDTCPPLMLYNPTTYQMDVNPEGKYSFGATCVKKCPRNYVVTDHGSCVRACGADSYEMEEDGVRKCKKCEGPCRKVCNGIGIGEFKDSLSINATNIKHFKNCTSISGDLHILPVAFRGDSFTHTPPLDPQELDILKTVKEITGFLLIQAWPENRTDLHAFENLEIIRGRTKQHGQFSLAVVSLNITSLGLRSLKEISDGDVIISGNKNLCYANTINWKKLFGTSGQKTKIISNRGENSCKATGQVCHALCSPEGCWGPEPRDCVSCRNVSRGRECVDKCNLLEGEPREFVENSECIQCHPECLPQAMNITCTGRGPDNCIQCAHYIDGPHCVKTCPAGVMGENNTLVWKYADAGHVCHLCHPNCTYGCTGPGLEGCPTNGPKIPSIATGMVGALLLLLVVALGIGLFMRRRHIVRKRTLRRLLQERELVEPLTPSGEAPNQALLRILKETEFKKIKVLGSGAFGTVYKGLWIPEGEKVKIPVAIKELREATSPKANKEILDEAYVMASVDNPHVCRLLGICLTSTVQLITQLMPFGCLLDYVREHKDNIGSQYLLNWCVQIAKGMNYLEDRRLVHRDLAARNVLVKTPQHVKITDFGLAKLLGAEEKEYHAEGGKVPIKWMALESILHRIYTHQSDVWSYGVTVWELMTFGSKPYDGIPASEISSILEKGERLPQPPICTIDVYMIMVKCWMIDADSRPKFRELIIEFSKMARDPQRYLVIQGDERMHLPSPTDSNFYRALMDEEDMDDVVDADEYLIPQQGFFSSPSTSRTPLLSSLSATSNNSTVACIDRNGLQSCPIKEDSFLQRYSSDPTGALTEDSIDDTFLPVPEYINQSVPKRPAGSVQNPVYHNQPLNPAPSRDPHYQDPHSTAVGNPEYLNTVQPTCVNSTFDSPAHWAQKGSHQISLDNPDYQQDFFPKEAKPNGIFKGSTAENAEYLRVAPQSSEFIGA

IC50: > 100 µM
SMILES: Cc1cc(/C=C2/C(=O)Nc3ccccc32)c(C)c2c1[nH]c1ccccc12 [VI]
